Patent publication US20010055590A1, “Method for enhancing myoblast migration and invasion in the context of gene therapy” (priority 1999, published 2001)

Experiments:
Type in all cases: cell-based
MMP-2 = test: Gelatin zymography of mouse myoblast culture medium, MMP-2; conditions: mouse myoblasts treated 24 hours; densitometry normalized to DMEM control
Description: Briefly, myoblasts were grown in 6 cm tissue culture plates to approximately 70% confluence, then rinsed three times with serumfree DMEM and incubated for 3 hours in DMEM containing 0.2% BSA to eliminate the effects of serum. Growth factors were added and cells were incubated for 24 hours. Culture medium was then collected, centrifuged to pellet detached cells, and concentrated ten-to twenty-fold using the Centricon-10 (Amicon, Beverly, Mass.) system. The protein concentration of the supernatants was determined using the Bio-Rad protein microassay system with BSA used as the standard. Samples were stored at −70° C. until use. For gelatin zymography, aliquots (10 μg as the total protein per sample) were electrophoresed at constant voltage on a 10% polyacrylamide gel containing 2 mg/ml gelatin. The gel was rinsed three times for 15 min in 2.5% Triton-X 100 to remove SDS and renature the proteins, then incubated in MMP activation buffer (0.05 M Tris-HCl, pH 7.5 with 5 mM CaCl2) for 24 hours at 37° C. with constant shaking. Gels were stained overnight in 0.5% Coomassie blue R-250, and destained for 1 hour in 40% methanol: 10% acetic acid. Proteinase activity was quantified by densitometric scanning of bands using a Bio-Rad Gel Doc 1000 video camera imaging system (Bio Rad, Hercules, Calif.). […] Values are arbitrary densitometric units, which are normalized to DMEM control for each experiment and shown as values ±SEM representing a minimum of 3 experiments per condition. […] Mouse myoblasts were treated for 24 hours with either DMEM alone, fibronectin (50 μg/ml), or individual fragments (37.5 μg/ml) of 45, 120, 63 (Retronectin), 75 kDa and their combinations, 45 kDa/120 kDa and 120 kDa/63 kDa.

mouse myoblasts = test: In vitro mouse myoblast migration assay (gelatin-coated membrane); conditions: 12 hours; for effect on mouse myoblast migration: stimulant in bottom chamber; for stimulation of mouse myoblast migration over the DMEM control: 25 ng/ml bFGF, 50 μg/ml fibronectin, 10 ng/ml HGF, 2 ng/ml TGF-β1
Description: Mouse myoblasts were previously isolated from hind limb muscles of 4-6 week old severe combined immunodeficient (SCID) mice and clonally purified from contaminating fibroblasts (Yao et al. “Primary myoblast-mediated gene: transfer: persistent expression of human factor IX in mice” Gene Therapy 1:99-107, 1994). Myoblasts (approximately 1×10^6 cells) were plated on 6 cm tissue culture plates coated with 0.5% gelatin (Sigma, St. Louis, Mo.) and grown in growth medium consisting of Dulbecco's Modified Eagle Medium (DMEM) (Gibco BRL, Gaithersburg Md.) supplemented with 20% fetal bovine serum (FBS; Gibco) and 0.5% chick embryo extract (CEE; Gibco). All animal studies were carried out following the institutional guidelines for ethical animal use. Human myoblasts were isolated using trypsin digestion from abdominal wall or chest wall muscle biopsies, and surgery. Written consent was obtained from all patients prior to biopsy isolation as approved by the University Hospital's Institutional Regulation Board on the use of human subjects. Cells were preplated on uncoated plates for 1 hour to separate muscle fibroblasts. […] All experiments were done with myoblasts of passage 7 or lower. Myoblast migration and invasion were examined using a commercially available in vitro cell migration and invasion assay kit (Biocoat, Becton Dickinson, Franklin Lakes, N.J.) as described by Albini et al. (A rapid in vitro assay for quantitating the invasive potential of tumor cells Cancer Res 47:3239-3245, 1987). Myoblasts were grown to approximately 70% confluence, rinsed three times in serum-free DMEM, followed by incubation for 3 hours in 0.2% bovine serum albumin (BSA) in DMEM to eliminate the effects of serum. Cells were then trypsinized and collected by centrifugation. Cells were resuspended in serum-free DMEM at a density of 1×10^5 cells/ml, and 0.5 ml aliquots of cell suspension were added to the top chamber. […] Fibronectin subfragments of 45 KDa (Sigma), 120 kDa (Gibco), 63 kDa (Retronectin, Takara) and 70 KDa (Sigma) were used alone or in combination. […] For migration studies, the upper chamber membrane was coated with 0.1% gelatin and cells were allowed to migrate for 8-12 hours, while for invasion studies, the upper membrane was coated with 5 μl of Matrigel® diluted to 5 mg/ml in sterile phosphate buffered saline (PBS) and cells were allowed to invade for 24 hours. The top side of the insert membrane was scrubbed free of cells using a cotton swab and the bottom side was stained using the Leukostat-I system (Fisher Diagnostics, Pittsburgh, Pa.). The number of cells per field was counted in 10 randomly selected fields and averaged for each condition. To evaluate the effects of inactivation or activation of MMPs, aliquots (0.05 units in 50 μl PBS) of purified human plasmin (Sigma) or 50 mM N-acetyl cysteine (NAC; Sigma) were added with the cells to the top chamber of the migration assay and growth factor was added to the bottom. […] Myoblasts (5×10^4 cells/well) were stimulated with various growth factors and fibronectin, and their ability to migrate or invade through a Matrigel® barrier (panel a, mouse myoblast migration at 12 hours; panel b, mouse myoblast invasion at 24 hours). […] Bars represent mean ±SEM from a minimum of 3 separate experiments. […] Further studies were done to elucidate the role of MMPs in cytokine-mediated mouse myoblast migration.

human myoblasts = test: In vitro human myoblast migration assay; conditions: 12 hour time point
Description: Mouse myoblasts were previously isolated from hind limb muscles of 4-6 week old severe combined immunodeficient (SCID) mice and clonally purified from contaminating fibroblasts (Yao et al. “Primary myoblast-mediated gene: transfer: persistent expression of human factor IX in mice” Gene Therapy 1:99-107, 1994). Myoblasts (approximately 1×10^6 cells) were plated on 6 cm tissue culture plates coated with 0.5% gelatin (Sigma, St. Louis, Mo.) and grown in growth medium consisting of Dulbecco's Modified Eagle Medium (DMEM) (Gibco BRL, Gaithersburg Md.) supplemented with 20% fetal bovine serum (FBS; Gibco) and 0.5% chick embryo extract (CEE; Gibco). All animal studies were carried out following the institutional guidelines for ethical animal use. Human myoblasts were isolated using trypsin digestion from abdominal wall or chest wall muscle biopsies, and surgery. Written consent was obtained from all patients prior to biopsy isolation as approved by the University Hospital's Institutional Regulation Board on the use of human subjects. Cells were preplated on uncoated plates for 1 hour to separate muscle fibroblasts. Approximately 95% of the cells were desmin-positive following immunohistochemical staining of representative culture samples, and were capable of differentiation into myotubes, indicating high purity of the myoblast preparation. All experiments were done with myoblasts of passage 7 or lower. Myoblast migration and invasion were examined using a commercially available in vitro cell migration and invasion assay kit (Biocoat, Becton Dickinson, Franklin Lakes, N.J.) as described by Albini et al. (A rapid in vitro assay for quantitating the invasive potential of tumor cells Cancer Res 47:3239-3245, 1987). Myoblasts were grown to approximately 70% confluence, rinsed three times in serum-free DMEM, followed by incubation for 3 hours in 0.2% bovine serum albumin (BSA) in DMEM to eliminate the effects of serum. Cells were then trypsinized and collected by centrifugation. Cells were resuspended in serum-free DMEM at a density of 1×10^5 cells/ml, and 0.5 ml aliquots of cell suspension were added to the top chamber. […] Fibronectin subfragments of 45 KDa (Sigma), 120 kDa (Gibco), 63 kDa (Retronectin, Takara) and 70 KDa (Sigma) were used alone or in combination. The growth factor concentrations used were those which could produce maximal effects as examined in the present studies by extending from values reported by Bischoff (“Chemotaxis of skeletal muscle satellite cells” Devel. Dynamics 208:505-515, 1997). For migration studies, the upper chamber membrane was coated with 0.1% gelatin and cells were allowed to migrate for 8-12 hours, while for invasion studies, the upper membrane was coated with 5 μl of Matrigel® diluted to 5 mg/ml in sterile phosphate buffered saline (PBS) and cells were allowed to invade for 24 hours. The top side of the insert membrane was scrubbed free of cells using a cotton swab and the bottom side was stained using the Leukostat-I system (Fisher Diagnostics, Pittsburgh, Pa.). The number of cells per field was counted in 10 randomly selected fields and averaged for each condition. To evaluate the effects of inactivation or activation of MMPs, aliquots (0.05 units in 50 μl PBS) of purified human plasmin (Sigma) or 50 mM N-acetyl cysteine (NAC; Sigma) were added with the cells to the top chamber of the migration assay and growth factor was added to the bottom. […] The effects of growth factors on human myoblast migration in vitro (12 hour time point) were somewhat different from those observed with mouse myoblasts. […] The greatly elevated level of migration of human myoblasts was due in part to the extremely low migration in the BSA control (basal level) of human cells compared to mouse cells. The largest effects on human myoblast migration were produced by fibronectin (100-fold), PDGF (about 62-fold), TGF-β (about 54-fold) and HGF (46-fold) over the control level, while bFGF produced only a 37-fold stimulation (FIG. 7a). […]

Molecule	increase of total MMP-2 expression (MMP-2)	effect on mouse myoblast migration (mouse myoblasts)	stimulation of mouse myoblast migration over the DMEM control (mouse myoblasts)	stimulation of human myoblast migration over the BSA control level (human myoblasts)
recombinant human insulin-like growth factor-I [IGF-I]	69%	stimulated migration of mouse myoblasts to various degrees	–	–
recombinant hepatocyte growth factor [HGF]	–	stimulated migration of mouse myoblasts to various degrees	8 fold	46 fold
purified human transforrning growth factor-β1 [TGF-β1]	36%	stimulated migration of mouse myoblasts to various degrees	5 fold	about 54 fold
recombinant human platelet-derived growth factor-BB (protein, UniProt P01127 82-190, looked up, Platelet-derived growth factor subunit B, recombinant human platelet-derived growth factor-BB) Platelet-derived growth …: SLGSLTIAEPAMIAECKTRTEVFEISRRLIDRTNANFLVWPPCVEVQRCSGCCNNRNVQCRPTQVQLRPVQVRKIEIVRKKPIFKKATVTLEDHLACKCETVAAARPVT	35%	stimulated migration of mouse myoblasts to various degrees	–	about 62 fold
